Assay results taken from patent EP2440179B1, “CHITOSAN OLIGOSACCHARIDE-BASED COMPOSITIONS” (Teslenko, Alexander, priority 2009, dated 2010).

Key:
Walker-Carciosarcom [1] = test: Photodynamic therapy in tumour-bearing rats: malondialdehyde in tumour homogenate (2-thiobarbituric acid); type: in vivo, Ratten; conditions: marker of oxidative stress
Excerpt: Der Nachweis der therapeutischen Wirkung von COS-ALA-Addukten erfolgte an insgesamt 60 Ratten mit einem Walker-Carciosarcom (30 Verum- und 30 Kontrolltiere). Die Tumore […] worden, die photodynamische Therapie mit COS-ALA wurde durchgeführt, wenn die Tumoren eine Große von 1 cm^3 erreicht hatten. Zur Behandlung […], Frankfurt/M.) mit monochromatischem […] λ = 634 nm. Die Bestrahlungsdosis betrug 37 J/cm^2, die […]. […] Dazu wurden die Tiere getötet, die Tumore […] und deren Gewicht und […] histologische Untersuchungen wurde Gewebe in 10 %iger Formalinlösung fixiert. Zur Bestimung des oxidativen Stress in den Tumorhomogenisaten diente der Gehalt an Malondialdehyd, der mit Hilfe der 2-Thiobarbitursäure bestimmt wurde.

Walker-Carciosarcom [2] = test: Photodynamic therapy in tumour-bearing rats: histological/cytological examination of tumour necrosis; type: in vivo, Ratten
Excerpt: Der Nachweis der therapeutischen Wirkung von COS-ALA-Addukten erfolgte an insgesamt 60 Ratten mit einem Walker-Carciosarcom (30 Verum- und 30 Kontrolltiere). Die Tumore waren den Tieren implantiert worden, die photodynamische Therapie mit COS-ALA wurde durchgeführt, wenn die Tumoren eine Große von 1 cm^3 erreicht hatten.
Zur Behandlung diente eine Lampe "[sequence]" (Galdena AG, Frankfurt/M.) mit monochromatischem Licht der Wellenlänge λ = 634 nm. Die Bestrahlungsdosis betrug 37 J/cm^2, die mittlere Energie 8,5 W. Die behandelten Gruppen bestanden aus jeweils 6 Tieren, die nach 1, 2, 3, 5, 6 und 24 Stunden sowie 2 Wochen untersucht wurden. Dazu wurden die Tiere getötet, die Tumore exstirpiert und deren Gewicht und Größe gemessen. Für histologische Untersuchungen wurde Gewebe in 10 %iger Formalinlösung fixiert.

[3] = type: in vitro ADME, Schwein; conditions: mean of 4 treated pig skins, after 2 Stunden Applikation
Experimental: Schweineohren wurden ohne Hautverletzungen sofort nach der Schlachtung aus einem Schlachthof abgeholt. Die Ohren wurden gründlich mit milder Seife abgewaschen. Unmittelbar danach wurde die subkutane Fettschicht mit dem Skalpell abgetrennt. Die Haut wurde in einem Container bei -20°C für weitere Untersuchungen aufbewahrt. Die Trennung der Epidermis von der Dermis erfolgte vorsichtig nach Erwärmung bei 60°C (1 Minute).
Die Eindringtiefe von COS-Salicylat wurde im Rahmen eines Schälverfahrens an einer Modellhaut bestimmt. Die 10%-ige COS-Salicylat-Lösung wurde auf die Hautoberfläche der Ohren aufgetragen und etwa 1 bis 2 Minuten in die Haut einmassiert. Währenddessen wurden die Ohren bei 35 °C temperiert.
Für die Schälung wurden 15 Tesafilmstreifen (Typ Tesa® Office, Beiersdorf, DE) auf eine Größe von 1,5 cm * 1,5 cm geschnitten und ausgewogen. Die auf dem Schweineohr ausgewählten Untersuchungsfelder von 2 cm * 2 cm wurden nacheinander mit den vorbereiteten Tesafilm-Streifen beklebt und danach abgezogen.
Die Streifen wurden mit Acetonitril bei 60°C im Laufe von 60 Minuten extrahiert. Die Lösungen wurden durch 0,5 µm-Membranen filtriert und mit Hilfe von HPLC analysiert.
Das Shimadzu LC-20A HPLC-System bestand aus einer Spherisorb S5 ODS2-Säule (Waters Co) und UV-Detektor. Mobile Phase war Wasser-Methanol-Acetonitril-Essigsaure. Tabelle 2: Mittelwerte der Wiederfindung aus 4 behandelten Schweinehäuten des COS-Salicylat (aus Beispiel 1) und Salicylsäure in einzelnen Hautschichten nach 2 Stunden Applikation.
Der Gehalt von COS-Salicylat in Epidermis und Dermis wurde mit Hilfe einer Franz-Zelle bestimmt.

## 5-Aminolävulinsäure [ALA]
Walker-Carciosarcom [1]; Zeit nach PDT 1 h
  Malondialdehyd: 0,25 nmol/mL
Walker-Carciosarcom [1]; Zeit nach PDT 2 h
  Malondialdehyd: 0,42 nmol/mL
Walker-Carciosarcom [1]; Zeit nach PDT 3 h
  Malondialdehyd: 0,47 nmol/mL
Walker-Carciosarcom [1]; Zeit nach PDT 5 h
  Malondialdehyd: 0,55 nmol/mL
Walker-Carciosarcom [1]; Zeit nach PDT 6 h
  Malondialdehyd: 0,61 nmol/mL
Walker-Carciosarcom [1]; Zeit nach PDT 24 h
  Malondialdehyd: 0,75 nmol/mL
Walker-Carciosarcom [2]; time until necrosis is seen
  Nekrose in der Mitte des Tumorgewebes zu sehen nach: 72 Stunden
Walker-Carciosarcom [2]; time until necrosis of the whole tumour
  Nekrose verbreitet sich auf das ganze Tumorgewebe nach: 2 Wochen

## O=C(O)c1ccccc1O [Salicylsäure]
[3]
  Wiederfindung, Verteilung in Dermis: 1,0 ± 0,15 µg/cm^2
  Wiederfindung, Verteilung in Epidermis: 2,1 ± 0,2 µg/cm^2
  Wiederfindung, Verteilung in Hornschicht: 5,3 ± 0,4 µg/cm^2
